Source: patent US8461328B2, “Tricyclic heterocyclic compounds, compositions and methods of use thereof” (Genentech, Inc., priority 2010, dated 2013)

Tests used:
Format in all cases: biochemical
JAK1 = biological target: T1, JAK1 (Homo sapiens, UniProt P23458); experiment: JAK1 inhibition (Table 4); conditions: read-out: JAK1 Ki
T1 construct: made in house; host or cells: SF9 insect cells (baculovirus)

JAK2 = biological target: T2, JAK2 (Homo sapiens, UniProt O60674); experiment: JAK2 inhibition (Table 4); conditions: read-out: JAK2 Ki
T2 construct: made in house; host or cells: SF9 insect cells (baculovirus)

JAK3 = biological target: T3, JAK3 (Homo sapiens, UniProt P52333); experiment: JAK3 inhibition (Table 4); conditions: read-out: JAK3 Ki
T3 construct: made in house; host or cells: SF9 insect cells (baculovirus)

TYK2 = biological target: T4, TYK2 (Homo sapiens, UniProt P29597); experiment: TYK2 inhibition (Table 4)
T4 construct: made in house; host or cells: SF9 insect cells (baculovirus)
T4 sequence (P29597 873-1187): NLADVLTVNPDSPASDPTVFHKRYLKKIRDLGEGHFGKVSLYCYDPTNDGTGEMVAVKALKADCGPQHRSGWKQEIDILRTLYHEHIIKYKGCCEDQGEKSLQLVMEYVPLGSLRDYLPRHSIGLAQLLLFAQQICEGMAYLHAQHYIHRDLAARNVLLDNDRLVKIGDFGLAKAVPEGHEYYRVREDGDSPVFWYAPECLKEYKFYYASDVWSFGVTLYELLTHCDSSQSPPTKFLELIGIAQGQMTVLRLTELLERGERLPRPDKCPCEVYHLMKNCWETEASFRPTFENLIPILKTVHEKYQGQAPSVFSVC

T2 sequence (O60674 812-1132): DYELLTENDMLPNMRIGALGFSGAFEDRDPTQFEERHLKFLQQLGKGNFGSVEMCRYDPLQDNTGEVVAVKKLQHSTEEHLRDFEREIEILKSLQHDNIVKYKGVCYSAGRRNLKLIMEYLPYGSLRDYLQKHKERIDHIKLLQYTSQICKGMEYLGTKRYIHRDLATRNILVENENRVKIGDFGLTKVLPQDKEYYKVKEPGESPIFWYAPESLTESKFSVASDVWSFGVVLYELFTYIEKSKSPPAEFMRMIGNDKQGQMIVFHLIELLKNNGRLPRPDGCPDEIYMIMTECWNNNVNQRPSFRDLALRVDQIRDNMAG
T1 sequence (P23458 852-1154): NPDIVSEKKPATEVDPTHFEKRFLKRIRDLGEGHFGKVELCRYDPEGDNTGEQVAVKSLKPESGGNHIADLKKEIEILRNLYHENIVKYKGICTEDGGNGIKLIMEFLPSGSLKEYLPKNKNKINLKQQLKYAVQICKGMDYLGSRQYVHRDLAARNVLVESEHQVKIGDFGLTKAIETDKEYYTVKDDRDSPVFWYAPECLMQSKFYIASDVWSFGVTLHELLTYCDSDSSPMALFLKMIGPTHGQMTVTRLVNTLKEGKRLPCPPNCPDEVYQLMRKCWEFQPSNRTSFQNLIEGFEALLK
T3 sequence (P52333 783-1124): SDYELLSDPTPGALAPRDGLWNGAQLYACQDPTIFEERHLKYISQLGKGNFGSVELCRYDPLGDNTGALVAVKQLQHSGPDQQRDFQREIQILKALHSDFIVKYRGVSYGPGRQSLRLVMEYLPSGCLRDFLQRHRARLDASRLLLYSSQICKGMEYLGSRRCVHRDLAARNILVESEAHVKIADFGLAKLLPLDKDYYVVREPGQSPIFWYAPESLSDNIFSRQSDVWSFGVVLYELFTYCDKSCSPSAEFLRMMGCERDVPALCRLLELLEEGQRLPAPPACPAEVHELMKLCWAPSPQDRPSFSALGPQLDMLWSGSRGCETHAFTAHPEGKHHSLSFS

Ki (JAK1) | Ki (JAK2) | Ki (JAK3) | Ki (TYK2) | Compound
34.4 nM | 48.9 nM | 153 nM | 159 nM | N#Cc1ccccc1CN1CCC[C@@H](n2cnc3cnc4[nH]ccc4c32)C1 [Example 41, 2-[(R)-3-(6H-1,3,5,6-Tetraaza-as-indacen-1-yl)-piperidin-1-ylmethyl]benzonitrile]
102 nM | 364 nM | 592 nM | 1050 nM | CC1(n2nnc3cnc4[nH]ccc4c32)CCN(CCC#N)CC1 [Example 582, 3-[4-Methyl-4-(6H-1,2,3,5,6-pentaaza-as-indacen-1-yl)-piperidin-1-yl]-propionitrile]
6.35 nM | 17.8 nM | 66.9 nM | 107 nM | N#Cc1ccc(CN2CCC[C@@H](n3cnc4cnc5[nH]ccc5c43)C2)cc1 [Example 40, 4-[(R)-3-(6H-1,3,5,6-Tetraaza-as-indacen-1-yl)-piperidin-1-ylmethyl]benzonitrile]
65.5 nM | 1060 nM | 394 nM | 542 nM | Cc1noc(CN2CC[C@H](n3c([C@@H](C)O)nc4cnc5[nH]ccc5c43)C2)n1 [Example 935, (R)-1-{1-[(S)-1-(3-Methyl-[1,2,4]oxadiazol-5-ylmethyl)-pyrrolidin-3-yl]-1,6-dihydro-1,3,5,6-tetraaza-as-indacen-2-yl}-ethanol]
0.12 nM | 0.81 nM | 5.31 nM | 0.36 nM | C[C@@H](O)c1nc2cnc3[nH]ccc3c2n1[C@H]1CC[C@H](CC#N)CC1 [Example 644, Trans {4-[2-((R)-1-Hydroxy-ethyl)-6H-1,2,3,5,6-tetraaza-as-indacen-1-yl]-cyclohexyl}-acetonitrile]
38.6 nM | 89 nM | 95.1 nM | 384 nM | N#CCCN1CCC(n2c(COCC3CCOC3)nc3cnc4[nH]ccc4c32)CC1 (stereo not drawn) [Example 836, 3-{4-[2-(Tetrahydro-furan-3-ylmethoxymethyl)-6H-1,3,5,6-tetraaza-as-indacen-1-yl]-piperidin-1-yl}-propionitrile]
22.4 nM | 87.6 nM |  | 293 nM | N#Cc1ccc(S(=O)(=O)N2CC[C@@H](n3cnc4cnc5[nH]ccc5c43)C2)cc1 [Example 433, 4-[(R)-3-(6H-1,3,5,6-Tetraaza-as-indacen-1-yl)-pyrrolidine-1-sulfonyl]-benzonitrile]
7.77 nM |  | 52.4 nM | 19.8 nM | OC[C@H](O)c1nc2cnc3[nH]ccc3c2n1C1CCCCC1 [Example 858, (R)-1-(1-Cyclohexyl-1,6-dihydro-1,3,5,6-tetraaza-as-indacen-2-yl)-ethane-1,2-diol]
65.3 nM | 596 nM |  | 1530 nM | O=C([C@@H]1CCCN1C1CCC1)N1CCC(n2cnc3cnc4[nH]ccc4c32)CC1 [Example 147, ((S)-1-Cyclobutyl-pyrrolidin-2-yl)-[4-(6H-1,2,3,5,6-tetraaza-as-indacen-1-yl)-piperidin-1-yl]-methanone]
200 nM |  | 397 nM | 3430 nM | CN(C(=O)Cc1nc2cnc3[nH]ccc3c2n1C1CCNCC1)C1CCCC1 [Example 257, N-Cyclopentyl-N-methyl-2-(1-piperidin-4-yl-1,6-dihydro-1,3,5,6-tetraaza-as-indacen-2-yl)-acetamide]
51.8 nM | 402 nM |  | 2410 nM | Cc1nc2cnc3[nH]ccc3c2n1C1CCN(C(=O)[C@@H]2CCCN2C)CC1 [Example 285]
292 nM | 186 nM |  | 2930 nM | CC(C)(C)OC(=O)N1CCC(n2c(C#N)nc3cnc4[nH]ccc4c32)CC1 [Example 169, 4-(2-Cyano-6H-1,2,3,5,6-tetraaza-as-indacen-1-yl)-piperidine-1-carboxylic acid tert-butyl ester]
106 nM | 494 nM | 47 nM |  | O=C(c1nc2cnc3[nH]ccc3c2n1C1CCN(Cc2ccccc2)CC1)N1CCOCC1 [Example 237, [1-(1-Benzyl-piperidin-4-yl)-1,6-dihydro-1,3,5,6-tetraaza-as-indacen-2-yl]-morpholin-4-yl-methanone]
44.1 nM | 515 nM |  | 1790 nM | CCN1CCCC[C@H]1C(=O)N1CCC(n2cnc3cnc4[nH]ccc4c32)CC1 [Example 949, ((S)-1-Ethyl-piperidin-2-yl)-[4-(6H-1,3,5,6-tetraaza-as-indacen-1-yl)-piperidin-1-yl]-methanone]
52.8 nM | 129 nM | 57.1 nM |  | CC(C)(C#N)c1nc2cnc3[nH]ccc3c2n1C1CCN(Cc2cnccn2)CC1 [Example 164, 2-Methyl-2-[1-(1-pyrazin-2-ylmethyl-piperidin-4-yl)-1,6-dihydro-1,2,3,5,6-tetraaza-as-indacen-2-yl]-propionitrile]
137 nM | 2240 nM | 2550 nM |  | CC(C)(O)c1nc2cnc3[nH]ccc3c2n1C1CCNCC1 [Example 334, 2-(1-Piperidin-4-yl-1,6-dihydro-1,3,5,6-tetraaza-as-indacen-2-yl)-propan-2-ol]
223 nM | 484 nM |  | 2790 nM | CC(C)N1CCC(n2nnc3cnc4[nH]ccc4c32)CC1 [Example 548, 1-(1-Isopropyl-piperidin-4-yl)-1,6-dihydro-1,2,3,5,6-pentaaza-as-indacene]
120 nM | 452 nM | 304 nM |  | c1ccc(CN2CCC(n3c(CN4CCOCC4)nc4cnc5[nH]ccc5c43)CC2)cc1 [Example 155, 1-(1-Benzyl-piperidin-4-yl)-2-morpholin-4-ylmethyl-1,6-dihydro-1,2,3,5,6-tetraaza-as-indacene]
90.5 nM | 1670 nM | 949 nM |  | Cc1nn(C)cc1CN1CCC(n2c([C@@H](C)O)nc3cnc4[nH]ccc4c32)CC1 [Example 828, (R)-1-{1-[1-(1,3-Dimethyl-1H-pyrazol-4-ylmethyl)-piperidin-4-yl]-1,6-dihydro-1,3,5,6-tetraaza-as-indacen-2-yl}-ethanol]
112 nM | 710 nM | 2650 nM |  | CC(C)(C)OC(=O)N1CCCC[C@H]1CN[C@H]1CC[C@H](n2cnc3cnc4[nH]ccc4c32)CC1 [Example 564, trans (S)-2-{[4-(6H-1,3,5,6-Tetraaza-as-indacen-1-yl)-cyclohexylamino]-methyl}-piperidine-1-carboxylic acid tert-butyl ester]
89.5 nM | 362 nM |  | 1410 nM | N#Cc1cccc(CC(=O)N2CC[C@@H](n3cnc4cnc5[nH]ccc5c43)C2)c1 [Example 189, 3-{2-oxo-2-[(R)-3-(6H-1,2,3,5,6-tetraaza-as-indacen-1-yl)-pyrrolidin-1-yl]-ethyl}-benzonitrile]
141 nM | 480 nM |  | 2880 nM | O=C([C@@H]1CCCCN1C1COC1)N1CCC(n2cnc3cnc4[nH]ccc4c32)CC1 [Example 951, ((S)-1-Oxetan-3-yl-piperidin-2-yl)-[4-(6H-1,3,5,6-tetraaza-as-indacen-1-yl)-piperidin-1-yl]-methanone]
49.9 nM | 241 nM | 103 nM |  | CC(C)(O)c1nc2cnc3[nH]ccc3c2n1C1CCN(Cc2ccccc2)CC1 [Example 171, 2-[1-(1-Benzyl-piperidin-4-yl)-1,6-dihydro-1,2,3,5,6-tetraaza-as-indacen-2-yl]-propan-2-ol]
481 nM | 370 nM |  | 3420 nM | Cc1nc(S(=O)(=O)N2CCC(n3cnc4cnc5[nH]ccc5c43)CC2)cn1C [Example 444, 1-[1-(1,2-Dimethyl-1H-imidazole-4-sulfonyl)-piperidin-4-yl]-1,6-dihydro-1,3,5,6-tetraaza-as-indacene]
432 nM | 1800 nM | 1780 nM |  | c1cc2c(ncc3nc(C4CCCN4)n(C4CCCOC4)c32)[nH]1 (single isomer, unassigned) [Example 665]
111 nM | 697 nM |  | 3150 nM | CN1CCN(CC(=O)N2CCC(n3cnc4cnc5[nH]ccc5c43)CC2)CC1 [Example 193, 2-(4-Methyl-piperazin-1-yl)-1-[4-(6H-1,2,3,5,6-tetraaza-as-indacen-1-yl)-piperidin-1-yl]-ethanone]
211 nM | 894 nM |  | 2230 nM | CN(C)CC(=O)N1CC[C@@H](n2cnc3cnc4[nH]ccc4c32)C1 [Example 429, 2-Dimethylamino-1-[(R)-3-(6H-1,3,5,6-tetraaza-as-indacen-1-yl)-pyrrolidin-1-yl]-ethanone]
69 nM | 2640 nM | 897 nM |  | C[C@@H](O)c1nc2cnc3[nH]ccc3c2n1[C@@H]1CCCN(C(=O)Cn2ccnc2)C1 [Example 798, 1-{(R)-3-[2-((R)-1-Hydroxy-ethyl)-6H-1,3,5,6-tetraaza-as-indacen-1-yl]-piperidin-1-yl}-2-imidazol-1-yl-ethanone]

Compound | Ki (JAK1) | Ki (JAK2) | Ki (JAK3) | Ki (TYK2)
OC[C@@H](O)c1nc2cnc3[nH]ccc3c2n1C1CCCCC1 [Example 688, (S)-1-(1-Cyclohexyl-1,6-dihydro-1,2,3,5,6-tetraaza-as-indacen-2-yl)-ethane-1,2-diol] | 1.77 nM |  | 16.1 nM | 4.7 nM
OCC(O)c1nc2cnc3[nH]ccc3c2n1C1CCCCC1 (racemic) [Example 853, 1-(1-Cyclohexyl-1,6-dihydro-1,3,5,6-tetraaza-as-indacen-2-yl)-ethane-1,2-diol] | 1.98 nM |  | 20.4 nM | 5.29 nM
